{"source": "ChEMBL document CHEMBL1201862", "about": "“PubChem BioAssay data set” (2004)", "test_in_all_cases": "NCI tumour cell line growth inhibition, 48 h", "key": {"[1]": {"test_system": "786-0"}, "[2]": {"test_system": "A498"}, "[3]": {"test_system": "A549"}, "[4]": {"test_system": "ACHN"}, "[5]": {"test_system": "BT-549"}, "[6]": {"test_system": "CAKI-1"}, "[7]": {"test_system": "CCRF-CEM"}, "[8]": {"test_system": "COLO 205"}, "[9]": {"test_system": "DU-145"}, "[10]": {"test_system": "EKVX"}, "[11]": {"test_system": "HCT-116"}, "[12]": {"test_system": "HCT-15"}, "[13]": {"test_system": "HL-60"}, "[14]": {"test_system": "HOP-62"}, "[15]": {"test_system": "HOP-92"}, "[16]": {"test_system": "HT-29"}, "[17]": {"test_system": "Hs-578T"}, "[18]": {"test_system": "IGROV-1"}, "[19]": {"test_system": "K562"}, "[20]": {"test_system": "KM12"}, "[21]": {"test_system": "LOX IMVI"}, "[22]": {"test_system": "M14"}, "[23]": {"test_system": "MCF7"}, "[24]": {"test_system": "MDA-MB-231"}, "[25]": {"test_system": "MDA-MB-435"}, "[26]": {"test_system": "MDA-N"}, "[27]": {"test_system": "MOLT-4"}, "[28]": {"test_system": "Malme-3M"}, "[29]": {"test_system": "NCI-H226"}, "[30]": {"test_system": "NCI-H23"}, "[31]": {"test_system": "NCI-H460"}, "[32]": {"test_system": "NCI-H522"}, "[33]": {"test_system": "NCI/ADR-RES"}, "[34]": {"test_system": "OVCAR-3"}, "[35]": {"test_system": "OVCAR-4"}, "[36]": {"test_system": "OVCAR-5"}, "[37]": {"test_system": "OVCAR-8"}, "[38]": {"test_system": "PC-3"}, "[39]": {"test_system": "RPMI-8226"}, "[40]": {"test_system": "RXF 393"}, "[41]": {"test_system": "SF-268"}, "[42]": {"test_system": "SF-295"}, "[43]": {"test_system": "SF-539"}, "[44]": {"test_system": "SK-MEL-28"}, "[45]": {"test_system": "SK-MEL-2"}, "[46]": {"test_system": "SK-MEL-5"}, "[47]": {"test_system": "SK-OV-3"}, "[48]": {"test_system": "SN12C"}, "[49]": {"test_system": "SNB-19"}, "[50]": {"test_system": "SNB-75"}, "[51]": {"test_system": "SR"}, "[52]": {"test_system": "SW-620"}, "[53]": {"test_system": "T47D"}, "[54]": {"test_system": "TK-10"}, "[55]": {"test_system": "U-251"}, "[56]": {"test_system": "UACC-257"}, "[57]": {"test_system": "UACC-62"}, "[58]": {"test_system": "UO-31"}}, "note": "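A five-concentration, 48-hour dose response in 96-well plates underlies each endpoint, interpolated linearly between surrounding concentrations. GI50 marks 50% less growth.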 Activity calls are given as the source filed them. Cut-off read from the data, not from the text of the source: active = GI50 up to about 1.1 µM and inactive = higher."}
{"molecule": "Cc1cc(OCc2nc(N)nc(N)c2-c2ccc(Cl)c(Cl)c2)ccc1[N+](=O)[O-]", "values": [{"measurement": "GI50", "setting": "[1]", "value": "104 nM (active)"}, {"measurement": "GI50", "setting": "[2]", "value": "103 nM (active)"}, {"measurement": "GI50", "setting": "[3]", "value": "35.2 nM (active)"}, {"measurement": "GI50", "setting": "[4]", "value": "74.6 nM (active)"}, {"measurement": "GI50", "setting": "[5]", "value": "1030 nM (active)"}, {"measurement": "GI50", "setting": "[6]", "value": "558 nM (active)"}, {"measurement": "GI50", "setting": "[7]", "value": "23.5 nM (active)"}, {"measurement": "GI50", "setting": "[8]", "value": "705 nM (active)"}, {"measurement": "GI50", "setting": "[9]", "value": "582 nM (active)"}, {"measurement": "GI50", "setting": "[10]", "value": "953 nM (active)"}, {"measurement": "GI50", "setting": "[11]", "value": "50.2 nM (active)"}, {"measurement": "GI50", "setting": "[12]", "value": 89.3, "unit": "nM"}, {"measurement": "GI50", "setting": "[13]", "value": "356 nM (active)"}, {"measurement": "GI50", "setting": "[14]", "value": "379 nM (active)"}, {"measurement": "GI50", "setting": "[15]", "value": "4920 nM (inactive)"}, {"measurement": "GI50", "setting": "[16]", "value": "92.7 nM (active)"}, {"measurement": "GI50", "setting": "[17]", "value": "12200 nM (inactive)"}, {"measurement": "GI50", "setting": "[18]", "value": "72.3 nM (active)"}, {"measurement": "GI50", "setting": "[19]", "value": "25.5 nM (active)"}, {"measurement": "GI50", "setting": "[20]", "value": "692 nM (active)"}, {"measurement": "GI50", "setting": "[21]", "value": "81.8 nM (active)"}, {"measurement": "GI50", "setting": "[22]", "value": "104 nM (active)"}, {"measurement": "GI50", "setting": "[23]", "value": "262 nM (active)"}, {"measurement": "GI50", "setting": "[24]", "value": "384 nM (active)"}, {"measurement": "GI50", "setting": "[25]", "value": "72.1 nM (active)"}, {"measurement": "GI50", "setting": "[26]", "value": "77.6 nM (active)"}, {"measurement": "GI50", "setting": "[27]", "value": "93.3 nM (active)"}, {"measurement": "GI50", "setting": "[28]", "value": "2590 nM (inactive)"}, {"measurement": "GI50", "setting": "[29]", "value": "8670 nM (inactive)"}, {"measurement": "GI50", "setting": "[30]", "value": "141 nM (active)"}, {"measurement": "GI50", "setting": "[31]", "value": "46.2 nM (active)"}, {"measurement": "GI50", "setting": "[32]", "value": "893 nM (active)"}, {"measurement": "GI50", "setting": "[33]", "value": "404 nM (active)"}, {"measurement": "GI50", "setting": "[34]", "value": "282 nM (active)"}, {"measurement": "GI50", "setting": "[35]", "value": "2190 nM (inactive)"}, {"measurement": "GI50", "setting": "[36]", "value": "450 nM (active)"}, {"measurement": "GI50", "setting": "[37]", "value": "556 nM (active)"}, {"measurement": "GI50", "setting": "[38]", "value": "467 nM (active)"}, {"measurement": "GI50", "setting": "[39]", "value": "1460 nM (inactive)"}, {"measurement": "GI50", "setting": "[40]", "value": "794 nM (active)"}, {"measurement": "GI50", "setting": "[41]", "value": "771 nM (active)"}, {"measurement": "GI50", "setting": "[42]", "value": "67.8 nM (active)"}, {"measurement": "GI50", "setting": "[43]", "value": "451 nM (active)"}, {"measurement": "GI50", "setting": "[44]", "value": "531 nM (active)"}, {"measurement": "GI50", "setting": "[45]", "value": "1410 nM (inactive)"}, {"measurement": "GI50", "setting": "[46]", "value": "224 nM (active)"}, {"measurement": "GI50", "setting": "[47]", "value": "3010 nM (inactive)"}, {"measurement": "GI50", "setting": "[48]", "value": "726 nM (active)"}, {"measurement": "GI50", "setting": "[49]", "value": "743 nM (active)"}, {"measurement": "GI50", "setting": "[50]", "value": "2100 nM (inactive)"}, {"measurement": "GI50", "setting": "[51]", "value": "23.7 nM (active)"}, {"measurement": "GI50", "setting": "[52]", "value": "235 nM (active)"}, {"measurement": "GI50", "setting": "[53]", "value": "2440 nM (inactive)"}, {"measurement": "GI50", "setting": "[54]", "value": "401 nM (active)"}, {"measurement": "GI50", "setting": "[55]", "value": "88.9 nM (active)"}, {"measurement": "GI50", "setting": "[56]", "value": "45.1 nM (active)"}, {"measurement": "GI50", "setting": "[57]", "value": "58.5 nM (active)"}, {"measurement": "GI50", "setting": "[58]", "value": "791 nM (active)"}]}
